Assay results: a melting point compilation (Tetko et al.; mined from patent text by program, amines drawn as free bases though some values may be those of a salt)

| melting point | SMILES |
| --- | --- |
| 98 to 100 °C | COC(=O)C1OC(I)C(OC(=O)C(C)(C)C)C(OC(=O)C(C)(C)C)C1OC(=O)C(C)(C)C (centres undefined) |
| 78 to 80 °C | CCCCOC(C=Cc1ccc(C(=O)O)cc1)c1ccc2c(c1)C(C)(C)CCC2(C)C (racemic) |
| 160 to 161 °C | COc1ccc(-c2ccc(C(=O)Nc3ccc4cc(CN5CCCCCC5)cnc4c3C)cc2F)cc1 |
| 136 to 137 °C | COC(=O)c1ccc(C2(c3ccc4c(c3)C3(C)C5(C)CCC(C5)C3(C)O4)OCCO2)cc1 (centres undefined) |
| 133 to 134 °C | CCCCOCCOc1ccc(-c2cc(/C=C(\C)C(=O)O)c3c(c2)CCCN3C)cc1 |
| 130 to 133 °C | NC(=S)N1CCN(c2ccc(SC(CCc3ccc(Cl)cc3)Cn3ccnc3)cc2)CC1 (centres undefined) |
| > 300 °C | CC12CCc3cc(C#N)ccc3C1=NNC(=O)C2 (centres undefined) |
| 245 to 248 °C | CNc1c(F)ccc(-n2cc(C(=O)O)c(=O)c3cc(F)c(NC)c(Cl)c32)c1F |
| 92 to 93 °C | Cc1ccc(OCc2ccccc2)c2cnn(Cc3ccccc3)c12 |
| 109 to 110 °C | CC(C)c1ccc2cc(O)ccc2c1 |
| 153 to 154 °C | Cc1ccc(C2=C(C(=O)O)N(CC(C)C)Cc3ccc(OCc4ccccc4)cc32)cc1 |
| 293 to 295 °C | CC(=O)Nc1ccc(C(=O)Nc2c(C)cccc2C)cc1 |
| 77 to 78 °C | O=C1CCCc2cc(I)ccc21 |
| 284 to 285 °C | CCOC(=O)C1=C(C)Nc2cc[nH]c(=O)c2C1c1cccs1 (centres undefined) |
| 126 °C | O=[N+]([O-])c1ccc(CSSCc2ccc([N+](=O)[O-])cc2)cc1 |
| 153 to 155 °C | O=c1[nH]c(=O)n(C2CC(OCc3cccc(Cl)c3)C(CO)O2)cc1F (centres undefined) |
| 243 to 245 °C | CS(=O)(=O)c1ccc(-c2cc(-c3csc(N)n3)sc2-c2ccc(F)cc2)cc1 |
| 118 to 119 °C | Oc1ccc(OCc2ccccc2)c2ccccc12 |
| 164 °C | Cc1ccc(C2COc3c(ccc(O)c3O)C2)cc1 (centres undefined) |
| 65 to 66 °C | O=C(CSc1ccc(Cl)cc1)c1ccccc1 |
| 114 to 117 °C | CCC(CC)c1ccc(Cl)c2nc3n(c12)CCCCN3c1ccc(OC(F)(F)F)cc1Br |
| 78 to 80 °C | CC(C)OC(=O)C=Cc1ccc(N)cc1 |
| 77 to 82 °C | COC(=O)CCCCCCNC(=O)C(COS(C)(=O)=O)NS(=O)(=O)c1ccc(Cl)cc1 (racemic) |
| 152 to 154 °C | O=C(O)C(=O)c1ccc(OCCOc2ccc3ccccc3c2)s1 |
| 155 to 157 °C | COc1cccc2c3c(c(=O)[nH]c12)CCN3c1cccc(C)c1 |

| melting point | SMILES |
| --- | --- |
| 160 to 161 °C | COC(=O)NNC(=O)C(O)(c1ccccc1)c1ccccc1 |
| 143 to 144 °C | O=C(NCCNCC1COc2ccccc2O1)C12CC3CC(CC1C3)C2 (centres undefined) |
| 113 to 130 °C | CC(C)(CO)NC(=O)NCCNCC(O)COc1ccc(O)cc1 (centres undefined) |
| 172 °C | CN1C(O)=C(C(=O)Nc2ccc(Cl)cc2)c2sccc2S1(=O)=O |
| 92 to 93 °C | N#Cc1c(SCCl)nsc1SCCl |
| 222 °C | O=C(CCc1ccccc1)Nc1ccc(CN2C(=O)[C@H]3CCC[C@H]3N(C(=O)CN3C(=O)c4ccccc4C3=O)c3ccccc32)cc1 (relative stereo) |
| 90 to 92 °C | COc1ccc2[nH]c(SCc3ncc(Br)c(N4CCCCC4)c3C)nc2c1 |
| 184 to 185 °C | C=CCOC(=O)/C(=N\O)c1csc(N)n1 |
| 105 to 107 °C | COc1ccc(C=CC(=O)c2c(OC)cc(OC)cc2OC(C)=O)cc1 |
| 153 to 154 °C | C=C(CC(N)=O)C(=O)O |
| 177 to 178 °C | COC(=O)c1cnc(S)n1Cc1cc(F)cc(F)c1 |
| 151 to 152 °C | CCCCCCCCCCNC(=O)C=Cc1cccc(N2CC(C(=O)O)CC2=O)c1 (centres undefined) |
| 76 to 80 °C | CC(=O)Cc1ccc(OCc2ccc(Cl)cc2)cc1 |
| 217 to 219 °C | O=C(NN=C1c2cccc(F)c2SCC1c1ccc(F)cc1)Nc1ccc(C(F)(F)F)cc1 (centres undefined) |
| 86 to 87 °C | COc1ccc(C(=O)c2sccc2O)cc1 |
| > 300 °C | O=c1[nH]c2cc(Cl)c([N+](=O)[O-])cc2n(C2CCCCC2)c1=O |
| 159 °C | COc1cccc(NC(=O)C(C)(C)C)c1C(C)O (centres undefined) |
| 129 to 130 °C | O=C(Nc1ccccc1)N1C(=O)C2(CCCCC2)NC12CCCCC2 |
| > 250 °C | CCc1nc2c(N)nc3ccccc3c2n1CCCS(C)(=O)=O |
| 144 to 146 °C | O=C(O)CN(C(=O)c1cccc(C(F)(F)F)c1S)C1CCCC1 |
| 268 °C | Nc1nc(-c2ccnc(-c3ccc(C(=O)NC4CCOCC4)cc3)c2)c(-c2ccccn2)s1 |
| 139 to 140 °C | CC1=C(C(=O)OCCN(C)Cc2ccccc2)C(c2cccc([N+](=O)[O-])c2)C(P2(=O)OCCCO2)=C(C)N1 (centres undefined) |
| 193 to 200 °C | NS(=O)(=O)c1ccc(N2CN(c3ccccc3)CC2=O)c(Br)c1 |
| 49 to 50 °C | C[C@@H]1C[C@@H](O)CC(C)(C)C1=O |
| 234 to 235 °C | O=C(O)CCC(=O)c1ccc(-n2cnc3c2CCCC3)cc1 |

| melting point | SMILES |
| --- | --- |
| 201 to 203 °C | CCCc1nn(C)c2c(=O)[nH]c(Cc3ccc(N(CC)CC)cc3)nc12 |
| 96 to 97 °C | CC(C)(C)OC(=O)C1=Cc2cc(Br)ccc2OC1 |
| 149 to 150 °C | CN(C)CCCn1c2c(c3cc(C(=O)O)ccc31)CCCCCC2 |
| 78 to 82 °C | CCOC(=O)C(C)Oc1ccc(C)cc1 (centres undefined) |
| 167 to 168 °C | Cc1oc(CCOc2ccc(CC3SC(=N)NC3=O)cc2)nc1CC(C)C (centres undefined) |
| 227 to 228 °C | Cc1nc(O)c(C)c(NCC2CC2)n1 |
| 128 to 130 °C | CNC(=O)C1=CC(C)(COC)Oc2ccc([N+](=O)[O-])cc21 (centres undefined) |
| 135 to 137 °C | Cc1ccc(Cc2cnc(NCCCCc3cc(CN(C)C)ccn3)[nH]c2=O)cn1 |
| 62 to 65 °C | CN(CCOc1ccc(C=O)cc1)C(=O)OC(C)(C)C |
| 71.5 to 74.5 °C | CCn1cccc1C(N)=S |
| 66 to 69 °C | CC(O)(c1nc2cc([N+](=O)[O-])ccc2s1)C(F)(F)F (centres undefined) |
| 156 to 160 °C | CCCCN(CCCC)c1ccc(C=CC=CC=CC2=C(C#N)C(=C(C#N)C#N)OC2(C)C)c(OC)c1 |
| 287 to 288 °C | O=C(C=c1sc2n(c1=O)Cc1ccccc1N=2)NC1CCCCC1 |
| 56 to 58 °C | CC1(C)CC(=O)OC1CC(Cl)(Cl)Cl (centres undefined) |
| 196 to 198 °C | CC(=O)NC1CCN(Cc2ccc(CCn3cnc4cc(-c5ccc(Cl)cc5)sc4c3=O)cc2)C1 (centres undefined) |
| 148 °C | CN(C)S(=O)(=O)c1cc(-c2csc(=Nc3ccccc3)n2C2CCCCC2)ccc1Cl |
| 64 to 66 °C | OC(CCl)COc1ccccc1OCC(O)CCl (centres undefined) |
| 192 to 193 °C | COc1cc(OC)nc(NC(=O)NS(=O)(=O)c2ccccc2S(N)(=O)=O)n1 |
| 92 °C | C#CCn1nnnc1SC(c1ccccc1)c1ccccc1 |
| 154 to 156 °C | COc1cn(-c2ccccc2F)nc(C(C)=O)c1=O |
| 228 to 229 °C | O=C(O)c1ccc(COc2ccc3cc(-c4ccc(-c5ccccc5)n4Cc4ccc(C(F)(F)F)cc4)ccc3c2)cc1 |
| 144 to 146 °C | CCCCc1c(/C=C/C(=O)Oc2ccc([N+](=O)[O-])cc2)cc(OC)c2ccc(OC)cc12 |
| 168 to 170 °C | CC(CS)C(=O)N(CC(=O)O)c1ccccc1 (centres undefined) |
| 60 °C | C#CCn1cc(CO)c([N+](=O)[O-])c1 |
| 252 to 253 °C | COC(=O)c1cc2cc([N+](=O)[O-])cc(O)c2o1 |

| melting point | SMILES |
| --- | --- |
| 249 to 251 °C | O=C1NCCN1c1ccc(S(=O)(=O)Nc2ccc(F)cc2)cc1 |
| 186 to 187 °C | CS(=O)(=O)NCCCn1cnc(-c2ccc(F)cc2)c1-c1ccncc1 |
| 80 to 85 °C | CSCON=C(C(=O)O)c1nccc(NC=O)n1 |
| 171 to 173 °C | O=C(O)Cc1ccc(OCc2c(Cl)cccc2C(=O)O)cc1 |
| 87 to 89 °C | CCOC(=NC(=O)CCl)N1Cc2ccccc2-c2ccccc2C1 |
| 124 to 125 °C | CC(C)(C)OC(=O)N1CCCC[C@@H]1C(=O)c1ccc(Br)cc1 |
| 150 to 153 °C | C[C@H]1CC[C@H]2C(C)(C)[C@@H](O)CC[C@]23Oc2c(c(O)cc4c2CN(S(=O)(=O)c2ccccc2)C4)C[C@]13C |
| 61 °C | COC(=O)c1ccc2c(c1)N(C(=O)N1CCC(c3cccnc3)C1)CCO2 (centres undefined) |
| 174 to 176 °C | O=C1c2ccccc2C(=O)N1C[C@H]1COc2ccc(Cl)cc2O1 |
| 127 to 129 °C | COc1cc(NC(=O)Nc2ccccc2)ccn1 |
| 107 to 108 °C | COC(OCCc1nc(C(C)C)c(Sc2cc(Cl)cc(Cl)c2)n1C)(c1ccccc1)c1ccccc1 |
| 75 to 77 °C | Cc1noc(-c2ccc(Br)c(C)c2)n1 |
| 114 °C | CCOC(=O)c1cnc2c(F)c(F)ccc2c1Cl |
| 233 °C | Oc1nc(O)c2occc2n1 |
| 115 to 117 °C | O=C(NC(CS)Cc1ccccc1)N1C=CC=CC1 (single isomer, unassigned; (+)) |
| 283 to 285 °C | C[C@@H](Nc1c(Nc2cccnc2)c(=O)c1=O)C(C)(C)C |
| 65 to 70 °C | CC(C)C1NCC(=O)N1CC(=O)NCC(N)=O (centres undefined) |
| 130 to 133 °C | CCOC(=O)CSc1ccc2nncn2n1 |
| 169 to 170 °C | COC(=O)c1ccc(Cn2c3c(c4cc(F)cc(F)c42)CCCC3CC(=O)O)cc1 (centres undefined) |
| 134 to 136 °C | O=S1NC(Cc2csc3ccccc23)=NO1 (centres undefined) |
| 206 to 209 °C | CC(CN1CCC(C#N)C1)NC(=O)c1c[nH]c2ncc(-c3nn(C)c4cc(Cl)ccc34)nc12 (centres undefined) |
| 52 to 56 °C | CS(=O)(=O)Nc1ccc(F)cc1OCCCN1CCC(OC(c2ccccc2)c2ccccc2)CC1 |
| 188 to 190 °C | O=C(c1ccc(F)cc1)C1CCN(CC2CC(c3ccc4[nH]c(=O)oc4c3)=NO2)CC1 (centres undefined) |

| SMILES | melting point |
| --- | --- |
| CC(C)(C)NCC(O)c1ccc(N)c(C#N)c1F (centres undefined) | 150 to 151 °C |
| COC1N=C(c2ccccc2Cl)c2cc(Cl)ccc2-c2c[nH]cc21 (centres undefined) | 215 to 218 °C |
| CCCCC(C(C)C)C(CN)CC(=O)O (centres undefined) | 160 to 170 °C |
| Cn1cc(C(=O)NC(=O)N2CC2C#N)c([N+](=O)[O-])n1 (centres undefined) | 58 to 64 °C |
| Cc1ccccc1C(=S)N1CC1C#N (centres undefined) | 67 to 69 °C |
| N#Cc1nn(-c2c(Cl)cc(C(F)(F)F)cc2Cl)c(N)c1-c1ccccc1 | 198 to 199 °C |
